Among the data in publication PMC10709440, “High-throughput ligand profile characterization in novel cell lines expressing seven heterologous insect olfactory receptors for the detection of volatile plant biomarkers” (Scientific Reports, 2023) are activity values, retold here.

Holding throughout (assay): cell-based
What all share (parameters): GCaMP6 calcium fluorescence in stable HEK293 OR+ORCO lines; peak dF normalised to 50 uM VUAA1 (=1)
Details in all cases: HEK293; relative to 50 uM VUAA1 response; below 0.05 set to 0; read-out: % activation

The target in one assay is T1, Drosophila OR71a (Drosophila melanogaster, UniProt Q9VUK5).
T1 construct: expressed in transfected cells
T1 sequence (Q9VUK5 1-378): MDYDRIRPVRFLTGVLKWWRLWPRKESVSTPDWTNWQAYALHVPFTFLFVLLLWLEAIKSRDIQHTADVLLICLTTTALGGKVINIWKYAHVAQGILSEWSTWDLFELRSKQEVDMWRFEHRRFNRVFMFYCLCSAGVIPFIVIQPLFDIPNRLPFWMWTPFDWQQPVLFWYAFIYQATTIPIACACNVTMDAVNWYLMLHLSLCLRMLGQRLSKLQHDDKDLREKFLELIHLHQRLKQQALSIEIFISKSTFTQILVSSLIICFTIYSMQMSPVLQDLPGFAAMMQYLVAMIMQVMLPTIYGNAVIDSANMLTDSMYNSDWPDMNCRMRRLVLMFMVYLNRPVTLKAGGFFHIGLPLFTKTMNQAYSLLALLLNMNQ
T1 sequence (Q9VNB5 1-486 partner): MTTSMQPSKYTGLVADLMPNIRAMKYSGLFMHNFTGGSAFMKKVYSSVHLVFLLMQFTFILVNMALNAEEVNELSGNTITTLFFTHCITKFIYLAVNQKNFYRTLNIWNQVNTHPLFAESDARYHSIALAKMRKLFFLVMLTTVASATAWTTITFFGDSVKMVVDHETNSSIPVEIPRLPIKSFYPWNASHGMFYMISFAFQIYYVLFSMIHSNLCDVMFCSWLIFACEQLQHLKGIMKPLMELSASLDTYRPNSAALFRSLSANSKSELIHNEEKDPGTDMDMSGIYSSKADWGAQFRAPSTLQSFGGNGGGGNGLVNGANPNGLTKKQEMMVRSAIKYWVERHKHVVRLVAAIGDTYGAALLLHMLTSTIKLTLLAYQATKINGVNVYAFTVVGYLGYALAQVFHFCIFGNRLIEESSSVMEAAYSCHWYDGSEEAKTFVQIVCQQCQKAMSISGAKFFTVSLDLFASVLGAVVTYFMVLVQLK
The method, then:
(§1) Twelve thousand to 18,000 cells were plated into each well of a black wall, transparent bottom 384-well microplate (Greiner) 48 h or 72 h before the measurements and were simultaneously treated with 1 μg/mL doxycycline. […] The plate has 24 columns, thus we could record responses in up to eight different cell lines in each plate. On the day of the experiment, the growth medium was replaced with 20 µL assay buffer/well (140 mM NaCl, 5 mM KCl, 2 mM CaCl2, 1 mM MgCl2, 5 mM HEPES-Na, 20 mM glucose, pH 7.3, 340 mOsm). […] Baseline fluorescence (F0) was recorded for 5 s, after which 7 µL VOC buffer (140 mM NaCl, 5 mM KCl, 2 mM CaCl2, 1 mM MgCl2, 5 mM HEPES-Na, 31 mM glucose, 0.1% DMSO, pH 7.3, 340 mOsm) was injected into each well in one row and the fluorescence response was recorded for an additional 30 s, at a rate of one read/sec. VOC solutions (VOC buffer with 4× concentration of the final measured VOC concentration, 9 µL/well was injected) were measured on the same wells in a second round with the same protocol. Each individual concentration of a specific VOC sample was recorded in three wells for the same cell line on the same microplate. The raw data were exported in xls file format, F0 and FMAX values, and the fluorescence intensity changes (∆F) were calculated in Excel (Microsoft) (Supplementary file Data summary.xlsx) using the following equation: ΔF=FMAX-F0/F0 (see also Fig. 1C). On each plate, we recorded the response of each cell line to 50 µM VUAA1. The average of these ∆F values of each cell line were used to calculate the VUAA1-normalized values for the rest of the plate, by dividing VOC response ∆F values by the average VUAA1 response ∆F value of the corresponding OR cell line. Each VOC-OR combination was measured three times as tec The recorded FMAX, F0, ∆F, VUAA1-normalized ∆F values, as well as the OR name, the name of the tested sample, and the final concentration for each well were copied into supplementary file Data summary.xlsx, that was used to summarize all the plates recorded. Here, the averages of the measurements were calculated for each receptor-VOC-concentration combination. […] Each VOC was measured at 1, 10, and 100 µM final concentration on each receptor. VUAA1-normalized response was calculated as described in methods.

The target in the next assay is T2, Drosophila OR49b (Drosophila melanogaster, UniProt Q9V6H2).
T2 construct: expressed in transfected cells
T2 sequence (Q9V6H2 1-375): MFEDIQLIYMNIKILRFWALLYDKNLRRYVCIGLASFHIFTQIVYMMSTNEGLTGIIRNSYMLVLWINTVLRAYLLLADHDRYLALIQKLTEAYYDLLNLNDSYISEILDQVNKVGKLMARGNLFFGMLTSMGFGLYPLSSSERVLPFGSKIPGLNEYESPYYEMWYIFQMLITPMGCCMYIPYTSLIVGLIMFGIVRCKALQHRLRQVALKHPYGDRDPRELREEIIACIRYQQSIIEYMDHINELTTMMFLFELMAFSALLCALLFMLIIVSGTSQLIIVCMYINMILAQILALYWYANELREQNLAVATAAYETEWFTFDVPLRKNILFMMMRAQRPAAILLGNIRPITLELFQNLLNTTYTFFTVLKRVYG
T2 sequence (Q9VNB5 1-486 partner): T1 sequence (Q9VNB5 1-486 partner)
The protocol:
as §1

In the next assay the target is T3, Drosophila OR13a (Drosophila melanogaster, UniProt Q9VXL0).
T3 construct: expressed in transfected cells
T3 sequence (Q9VXL0 1-418): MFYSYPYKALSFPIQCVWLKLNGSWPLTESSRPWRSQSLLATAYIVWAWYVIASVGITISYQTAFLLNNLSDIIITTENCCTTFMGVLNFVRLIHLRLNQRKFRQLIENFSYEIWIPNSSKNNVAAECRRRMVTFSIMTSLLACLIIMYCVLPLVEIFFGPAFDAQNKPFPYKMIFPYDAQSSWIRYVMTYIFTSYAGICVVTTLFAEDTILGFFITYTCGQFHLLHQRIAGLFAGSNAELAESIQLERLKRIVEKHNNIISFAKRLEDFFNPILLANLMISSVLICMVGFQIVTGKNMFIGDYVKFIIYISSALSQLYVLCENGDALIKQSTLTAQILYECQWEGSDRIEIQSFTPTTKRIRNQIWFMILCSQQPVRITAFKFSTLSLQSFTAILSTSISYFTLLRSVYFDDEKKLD
T3 sequence (Q9VNB5 1-486 partner): T1 sequence (Q9VNB5 1-486 partner)
The method, then:
as §1

As for `Cc1ccc(C)cc1` [p-xylene], the activity at 10 µM on Drosophila OR71a is 6.15%.
On to `COC(=O)c1ccccc1O` [methyl salicylate], for which, on Drosophila OR71a, the activity at 100 µM was 11.5%.
For the compound `CCCCCOC(C)=O` [pentyl acetate], at Drosophila OR49b, the activity at 1 µM was determined as 7.95% and the activity at 100 µM came out at 6.1%. Also, on Drosophila OR71a, the activity at 100 µM came out at 8.7%.
`CCCCCCCCCCCCCC` [tetradecane]: on Drosophila OR49b, the activity at 1 µM was 6.86% and the activity at 10 µM was determined as 5.2%.
With `C=C(C)[C@H]1CC=C(C)CC1` [(R)-(+)-limonene], the activity at 1 µM on Drosophila OR13a, at Drosophila OR49b and at Drosophila OR71a was 0% each time. Besides, the activity at 10 µM at Drosophila OR13a, at Drosophila OR49b and at Drosophila OR71a was 0% throughout. Besides, the activity at 100 µM on Drosophila OR13a, at Drosophila OR49b and at Drosophila OR71a was 0% throughout.
For the compound `COC(=O)c1ccccc1` [methyl benzoate], the activity at 1 µM at Drosophila OR49b is 13.4%.
With `OCCc1ccccc1` [phenethyl alcohol], the activity at 100 µM on Drosophila OR49b came to 9.32%. Besides, the activity at 1 µM at Drosophila OR71a is 8.62%.
Consider `C=C1CC[C@@]23C[C@@H]1C(C)(C)[C@@H]2CC[C@H]3C` [(+)-beta-cedrene], for which, on Drosophila OR13a, the activity at 1 µM was determined as 0%, the activity at 10 µM is 0% and the activity at 100 µM was found to be 0%. On Drosophila OR49b, the activity at 1 µM turned out to be 0%, the activity at 10 µM was determined as 0% and the activity at 100 µM worked out at 0%. On Drosophila OR71a, the activity at 1 µM came to 0%, the activity at 10 µM was 0% and the activity at 100 µM worked out at 0%.
For the compound `C=C(C)C1CCC2(C)OC2C1` (single isomer, unassigned; (+)) [(+)-limonene oxide], the activity at 1 µM on Drosophila OR13a, at Drosophila OR49b and at Drosophila OR71a was 0% each time. Further, the activity at 10 µM at Drosophila OR13a, at Drosophila OR49b and on Drosophila OR71a was 0% each time. In addition, the activity at 100 µM at Drosophila OR13a, at Drosophila OR49b and at Drosophila OR71a was 0% each time.
For the compound `C=C1[C@H]2CC[C@@H]3[C@H]2C(C)(C)CCC[C@]13C` [(+)-longifolene], the activity at 1 µM on Drosophila OR13a worked out at 0%; on Drosophila OR49b, 7.75%; on Drosophila OR71a, 0%. The activity at 10 µM at Drosophila OR13a, at Drosophila OR49b and at Drosophila OR71a was 0% throughout. Moreover, the activity at 100 µM on Drosophila OR13a, on Drosophila OR49b and on Drosophila OR71a was 0% each time.
